Molecules are shown by their SMILES. Some results are limits rather than exact numbers.

This note sets out measurements from ChEMBL document CHEMBL1140464, “Synthesis and structure-activity relationship of 4-(2-aryl-cyclopropylamino)-quinoline-3-carbonitriles as EGFR tyrosine kinase inhibitors” (Bioorg Med Chem Lett, 2007).

The target in experiment [1] is T1, Epidermal growth factor receptor (Homo sapiens, UniProt P00533). Briefly: Inhibition of human EGFR autophosphorylation in A431 cells.
The target in experiment [2] is Proto-oncogene tyrosine-protein kinase Src (Homo sapiens, UniProt P12931). Briefly: Inhibition of SRC.
Experiment [3] concerns the target Tyrosine-protein kinase ABL1 (Homo sapiens, UniProt P00519). Briefly: Inhibition of ABL.
Experiment [4] concerns the target Vascular endothelial growth factor receptor 1 (Homo sapiens, UniProt P17948). Briefly: Inhibition of Flt1.
The target of experiment [5] is Vascular endothelial growth factor receptor 2 (Homo sapiens, UniProt P35968). Kind of experiment: Inhibition of KDR.
For experiment [6], the target named is T1, Epidermal growth factor receptor. Kind of experiment: Inhibition of human recombinant EGFR by fluorescence polarization assay.
In experiment [7] the target is Tyrosine-protein kinase SYK (Homo sapiens, UniProt P43405). Kind of experiment: Inhibition of SYK.

Tyrosine-protein kinase ABL1, sequence (P00519 whole entry): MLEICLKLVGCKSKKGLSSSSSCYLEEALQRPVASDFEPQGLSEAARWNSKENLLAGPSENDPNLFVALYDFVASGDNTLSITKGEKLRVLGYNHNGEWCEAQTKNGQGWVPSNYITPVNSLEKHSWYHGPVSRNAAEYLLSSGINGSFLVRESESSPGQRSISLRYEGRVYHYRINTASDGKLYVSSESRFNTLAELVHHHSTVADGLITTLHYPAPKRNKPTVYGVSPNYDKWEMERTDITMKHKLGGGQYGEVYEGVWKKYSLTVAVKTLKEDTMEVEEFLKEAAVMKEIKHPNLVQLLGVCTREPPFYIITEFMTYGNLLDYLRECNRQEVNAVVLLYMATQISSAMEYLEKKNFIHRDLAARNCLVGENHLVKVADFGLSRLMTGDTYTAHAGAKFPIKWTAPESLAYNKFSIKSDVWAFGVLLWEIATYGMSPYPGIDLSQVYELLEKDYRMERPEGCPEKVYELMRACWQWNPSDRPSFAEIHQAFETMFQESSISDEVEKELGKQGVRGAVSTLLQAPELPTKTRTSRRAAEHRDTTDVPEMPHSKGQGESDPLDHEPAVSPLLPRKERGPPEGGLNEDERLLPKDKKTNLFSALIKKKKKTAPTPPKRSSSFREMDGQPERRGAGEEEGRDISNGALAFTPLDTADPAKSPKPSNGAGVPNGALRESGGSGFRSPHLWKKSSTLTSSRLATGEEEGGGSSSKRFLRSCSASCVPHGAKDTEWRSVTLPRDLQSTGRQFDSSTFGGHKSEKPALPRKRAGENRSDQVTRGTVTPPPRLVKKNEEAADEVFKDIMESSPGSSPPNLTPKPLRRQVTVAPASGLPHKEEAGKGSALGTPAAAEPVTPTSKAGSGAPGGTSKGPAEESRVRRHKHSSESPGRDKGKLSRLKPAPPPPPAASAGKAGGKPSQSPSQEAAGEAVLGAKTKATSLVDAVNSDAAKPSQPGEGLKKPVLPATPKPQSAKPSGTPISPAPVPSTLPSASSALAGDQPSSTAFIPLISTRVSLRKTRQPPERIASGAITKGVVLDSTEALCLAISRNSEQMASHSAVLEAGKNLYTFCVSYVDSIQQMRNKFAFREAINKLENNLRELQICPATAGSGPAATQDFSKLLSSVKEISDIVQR
Vascular endothelial growth factor receptor 1, sequence (P17948 whole entry): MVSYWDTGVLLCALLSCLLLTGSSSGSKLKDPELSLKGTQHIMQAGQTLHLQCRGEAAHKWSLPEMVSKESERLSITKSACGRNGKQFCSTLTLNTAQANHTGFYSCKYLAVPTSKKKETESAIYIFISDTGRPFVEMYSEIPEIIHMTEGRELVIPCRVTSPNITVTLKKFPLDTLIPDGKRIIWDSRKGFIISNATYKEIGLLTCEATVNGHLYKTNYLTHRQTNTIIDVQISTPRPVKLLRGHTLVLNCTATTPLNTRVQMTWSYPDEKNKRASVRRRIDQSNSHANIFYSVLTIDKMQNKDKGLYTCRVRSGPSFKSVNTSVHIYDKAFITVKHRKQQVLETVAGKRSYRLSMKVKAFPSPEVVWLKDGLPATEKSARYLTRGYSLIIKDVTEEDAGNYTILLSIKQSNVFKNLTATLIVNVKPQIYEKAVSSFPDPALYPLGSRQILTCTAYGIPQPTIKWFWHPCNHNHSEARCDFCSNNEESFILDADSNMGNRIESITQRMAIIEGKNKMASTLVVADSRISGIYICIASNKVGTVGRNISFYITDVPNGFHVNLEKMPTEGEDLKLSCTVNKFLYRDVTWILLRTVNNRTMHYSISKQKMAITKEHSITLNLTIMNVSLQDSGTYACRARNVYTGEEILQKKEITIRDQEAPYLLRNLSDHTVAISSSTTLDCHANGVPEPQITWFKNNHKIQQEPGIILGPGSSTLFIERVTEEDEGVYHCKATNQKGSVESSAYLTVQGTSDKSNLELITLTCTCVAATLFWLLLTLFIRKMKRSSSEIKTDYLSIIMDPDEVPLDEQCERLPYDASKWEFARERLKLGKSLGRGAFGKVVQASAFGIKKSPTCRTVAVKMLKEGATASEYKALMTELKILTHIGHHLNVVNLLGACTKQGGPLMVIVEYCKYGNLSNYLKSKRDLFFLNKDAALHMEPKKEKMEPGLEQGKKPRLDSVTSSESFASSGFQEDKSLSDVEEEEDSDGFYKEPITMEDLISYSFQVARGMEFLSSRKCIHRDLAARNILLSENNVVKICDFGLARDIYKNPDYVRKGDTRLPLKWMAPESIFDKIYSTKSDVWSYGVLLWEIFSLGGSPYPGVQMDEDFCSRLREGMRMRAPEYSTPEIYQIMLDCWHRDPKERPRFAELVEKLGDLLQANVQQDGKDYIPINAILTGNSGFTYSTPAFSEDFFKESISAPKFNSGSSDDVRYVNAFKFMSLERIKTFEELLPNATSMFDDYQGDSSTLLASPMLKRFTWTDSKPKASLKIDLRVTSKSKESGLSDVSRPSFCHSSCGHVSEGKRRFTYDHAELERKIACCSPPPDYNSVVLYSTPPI
Vascular endothelial growth factor receptor 2, sequence (P35968 whole entry): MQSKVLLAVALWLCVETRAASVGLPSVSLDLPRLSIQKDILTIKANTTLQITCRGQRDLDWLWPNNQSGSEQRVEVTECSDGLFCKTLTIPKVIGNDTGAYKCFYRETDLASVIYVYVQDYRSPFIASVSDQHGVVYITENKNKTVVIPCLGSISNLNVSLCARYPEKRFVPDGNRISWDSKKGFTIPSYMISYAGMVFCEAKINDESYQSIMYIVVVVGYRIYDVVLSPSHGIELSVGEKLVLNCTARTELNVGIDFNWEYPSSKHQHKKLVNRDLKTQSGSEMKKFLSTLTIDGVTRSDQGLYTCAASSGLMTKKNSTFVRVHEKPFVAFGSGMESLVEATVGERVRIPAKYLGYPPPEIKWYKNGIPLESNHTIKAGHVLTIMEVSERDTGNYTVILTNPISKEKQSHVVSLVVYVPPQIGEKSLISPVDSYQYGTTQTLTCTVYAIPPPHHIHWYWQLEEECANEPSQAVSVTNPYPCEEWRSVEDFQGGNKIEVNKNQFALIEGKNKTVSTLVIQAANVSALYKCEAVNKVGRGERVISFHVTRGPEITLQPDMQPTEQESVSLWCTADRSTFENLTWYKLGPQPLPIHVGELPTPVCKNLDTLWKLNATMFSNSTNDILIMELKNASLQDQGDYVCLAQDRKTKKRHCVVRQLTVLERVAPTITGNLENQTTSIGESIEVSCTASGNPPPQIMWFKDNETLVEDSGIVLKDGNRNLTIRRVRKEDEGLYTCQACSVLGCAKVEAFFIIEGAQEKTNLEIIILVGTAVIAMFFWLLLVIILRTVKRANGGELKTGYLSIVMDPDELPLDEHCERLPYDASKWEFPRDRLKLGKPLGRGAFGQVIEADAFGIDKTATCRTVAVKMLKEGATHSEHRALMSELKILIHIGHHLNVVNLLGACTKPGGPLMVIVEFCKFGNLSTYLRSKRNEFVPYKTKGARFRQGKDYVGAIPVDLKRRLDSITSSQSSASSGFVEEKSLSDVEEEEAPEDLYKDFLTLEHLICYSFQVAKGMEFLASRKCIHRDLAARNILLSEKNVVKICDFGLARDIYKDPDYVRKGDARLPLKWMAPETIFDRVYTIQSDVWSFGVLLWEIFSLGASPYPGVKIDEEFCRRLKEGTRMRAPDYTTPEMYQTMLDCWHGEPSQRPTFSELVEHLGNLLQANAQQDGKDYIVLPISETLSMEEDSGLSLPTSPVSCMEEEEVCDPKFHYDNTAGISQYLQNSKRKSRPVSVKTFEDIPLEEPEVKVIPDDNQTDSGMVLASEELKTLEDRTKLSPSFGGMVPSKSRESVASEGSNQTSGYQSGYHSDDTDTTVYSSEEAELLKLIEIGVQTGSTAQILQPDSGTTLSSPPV
Proto-oncogene tyrosine-protein kinase Src, sequence (P12931 2-536 limits assumed): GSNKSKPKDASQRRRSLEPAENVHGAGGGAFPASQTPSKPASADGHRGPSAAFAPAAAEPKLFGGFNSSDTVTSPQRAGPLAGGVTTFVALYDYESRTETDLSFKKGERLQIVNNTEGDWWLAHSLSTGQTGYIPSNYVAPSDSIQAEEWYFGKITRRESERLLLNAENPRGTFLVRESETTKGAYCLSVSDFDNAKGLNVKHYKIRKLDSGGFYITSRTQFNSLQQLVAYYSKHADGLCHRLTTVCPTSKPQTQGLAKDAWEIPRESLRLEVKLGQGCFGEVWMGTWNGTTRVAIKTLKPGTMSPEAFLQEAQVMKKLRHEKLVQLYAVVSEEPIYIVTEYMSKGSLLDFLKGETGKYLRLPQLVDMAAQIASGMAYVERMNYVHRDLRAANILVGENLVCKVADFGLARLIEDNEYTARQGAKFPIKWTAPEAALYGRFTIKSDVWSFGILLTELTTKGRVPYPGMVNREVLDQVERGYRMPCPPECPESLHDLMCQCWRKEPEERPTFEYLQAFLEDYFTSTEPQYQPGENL

Regarding `COc1cc2ncc(C#N)c(N[C@@H]3C[C@H]3c3ccccc3)c2cc1OCCN1CCOCC1`, the IC50 in experiment [1] was 405 nM. Moreover, the Ki in experiment [2] was more than 10000 nM; in experiment [3], more than 10000 nM; in experiment [4] it was more than 10000 nM; in experiment [5] it was 150 nM; in experiment [6] it was 64 nM; in experiment [7], more than 10000 nM.

In turn, `COc1cc2ncc(C#N)c(N[C@@H]3C[C@H]3c3ccccc3)c2cc1OCc1ccccc1` returned an IC50 in experiment [1] of 1610 nM. Further, the Ki is 330 nM in experiment [2]; more than 10000 nM in experiment [3]; more than 10000 nM in experiment [4]; 2600 nM in experiment [5]; 120 nM in experiment [6]; more than 10000 nM in experiment [7].

In turn, `COc1cc2ncc(C#N)c(N[C@@H]3C[C@H]3c3ccccc3)c2cc1OC` had an IC50 in experiment [1] of 90 nM. For the same molecule, the inhibition constant (Ki) in experiment [2] is 150 nM; in experiment [3], 950 nM; in experiment [4], 1600 nM; in experiment [5], 2100 nM; in experiment [6], 24 nM; in experiment [7], 250 nM.

As to `N#Cc1cnc2ccc(-c3cccc(CN4CCOCC4)c3)cc2c1N[C@@H]1C[C@H]1c1ccccc1`, the IC50 in experiment [1] was determined as 5260 nM. The Ki was 280 nM in experiment [2]; more than 10000 nM in experiment [3]; more than 10000 nM in experiment [4]; more than 10000 nM in experiment [5]; 340 nM in experiment [6]; more than 10000 nM in experiment [7].

Take `COc1cc2ncc(C#N)c(N[C@@H]3C[C@H]3c3ccccc3)c2cc1OCCCN1CCOCC1`: the Ki in experiment [2] is more than 10000 nM; in experiment [3], 1800 nM; in experiment [4], 910 nM; in experiment [5], 560 nM; in experiment [6], 52 nM; in experiment [7], more than 10000 nM.

Regarding `COc1cc2c(N[C@@H]3C[C@H]3c3ccccc3)c(C#N)cnc2cc1OCCCc1cccnc1`, the 50% inhibitory concentration (IC50) in experiment [1] stood at 173 nM. The Ki in experiment [2] was determined as 49 nM; in experiment [3], 300 nM; in experiment [4], 1900 nM; in experiment [5], 99 nM; in experiment [6], 220 nM; in experiment [7], 140 nM.

With `COc1cc2ncc(C#N)c(N[C@@H]3C[C@H]3c3ccccc3)c2cc1OCCCc1cccnc1`, the midpoint of inhibition in experiment [1], the IC50, lay at 68 nM. The Ki in experiment [2] is more than 10000 nM; in experiment [3], 1800 nM; in experiment [4], 1710 nM; in experiment [5] it was 650 nM; in experiment [6], 68 nM; in experiment [7], more than 10000 nM.

`N#Cc1cnc2ccc(-c3ccc(CN4CCOCC4)cc3)cc2c1N[C@@H]1C[C@H]1c1ccccc1`: half-maximal inhibition in experiment [1] (IC50) was put at 2530 nM. Also, the Ki in experiment [2] is 570 nM; in experiment [3] it was more than 10000 nM; in experiment [4] it was more than 10000 nM; in experiment [5], more than 10000 nM; in experiment [6], 400 nM; in experiment [7], more than 10000 nM.

For the molecule `COc1cc2ncc(C#N)c(N[C@@H]3C[C@H]3c3ccc(Br)cc3)c2cc1OC`, the Ki in experiment [6] stood at 220 nM.

As to `COc1cc2ncc(C#N)c(N[C@@H]3C[C@H]3c3ccc(Cl)cc3)c2cc1OC`, the Ki in experiment [6] turned out to be 44 nM.

Regarding `COc1cc2c(N[C@@H]3C[C@H]3c3ccccc3)c(C#N)cnc2cc1OCCCN1CCOCC1`, the Ki in experiment [2] is 45 nM; in experiment [3], 200 nM; in experiment [4], 350 nM; in experiment [5], 420 nM; in experiment [7], more than 10000 nM.

In experiment [1], `COc1cc2c(N[C@@H]3C[C@H]3c3ccccc3)c(C#N)cnc2cc1OCCCN1CCN(C)CC1` returned an IC50 of 5.7 nM. In addition, the Ki was found to be 27 nM in experiment [2]; 44 nM in experiment [3]; 110 nM in experiment [4]; 300 nM in experiment [5]; 3 nM in experiment [6]; 41 nM in experiment [7].

As for `COc1cc2c(N[C@@H]3C[C@H]3c3ccccc3)c(C#N)cnc2cc1OC1CCN(C)CC1`, the IC50 in experiment [1] is 360 nM. Further, the Ki in experiment [2] is more than 10000 nM; in experiment [3] it was more than 10000 nM; in experiment [4] it was 1500 nM; in experiment [5], more than 10000 nM; in experiment [6], 360 nM; in experiment [7], more than 10000 nM.

As to `COc1cc2ncc(C#N)c(N[C@@H]3C[C@H]3c3ccc(Oc4ccccc4)cc3)c2cc1OC`, the Ki in experiment [6] was 80 nM.

Consider `N#Cc1cnc2cc(-c3ccc(CN4CCOCC4)cc3)ccc2c1N[C@@H]1C[C@H]1c1ccccc1`, for which, in experiment [1], the IC50 amounted to 234 nM. The Ki in experiment [2] came to 140 nM; in experiment [4], 920 nM; in experiment [5], 170 nM; in experiment [6], 80 nM.

Turning to `COc1cc2ncc(C#N)c(N[C@@H]3C[C@H]3c3cccc(Br)c3)c2cc1OC`, in experiment [6], the inhibition constant Ki was 52 nM.

`COCCOc1cc2ncc(C#N)c(N[C@@H]3C[C@H]3c3ccccc3)c2cc1OC` yielded an IC50 in experiment [1] of 52.8 nM. Further, the Ki in experiment [2] stood at 110 nM; in experiment [3], 390 nM; in experiment [4], 2900 nM; in experiment [5] it was 140 nM; in experiment [6] it was 60 nM; in experiment [7], 160 nM.

For the molecule `COc1cc2ncc(C#N)c(N[C@@H]3C[C@H]3c3ccccc3F)c2cc1OC`, in experiment [6], the Ki amounted to 36 nM.

As for `COc1ccc2c(N[C@@H]3C[C@H]3c3ccccc3)c(C#N)cnc2c1`, it took 2580 nM to reach half-maximal inhibition in experiment [1] (IC50). The Ki is 170 nM in experiment [2]; more than 10000 nM in experiment [3]; more than 10000 nM in experiment [4]; more than 10000 nM in experiment [5]; 180 nM in experiment [6]; more than 10000 nM in experiment [7].

Regarding `N#Cc1cnc2ccc(-c3ccc(CN)cc3)cc2c1N[C@@H]1C[C@H]1c1ccccc1`, in experiment [1], 2100 nM corresponded to half-maximal inhibition (IC50). Also, the Ki in experiment [2] is 86 nM; in experiment [3] it was 770 nM; in experiment [4], 1400 nM; in experiment [5] it was 1500 nM; in experiment [6], 40 nM; in experiment [7] it was 450 nM.

As to `COc1ccc2ncc(C#N)c(N[C@@H]3C[C@H]3c3ccccc3)c2c1`, the IC50 in experiment [1] is 8270 nM. For the same molecule, the Ki in experiment [2] was 210 nM; in experiment [3], more than 10000 nM; in experiment [4], more than 10000 nM; in experiment [5], more than 10000 nM; in experiment [6], 360 nM; in experiment [7], more than 10000 nM.

What is called IC50 is the point on the concentration scale where inhibition reaches its midpoint. High values mean a need for much substance, low ones inhibition by little substance. For orientation: Ki means the equilibrium dissociation constant of an inhibitor or competing ligand from its target.
